Laboratory results as given in patent publication US20250257045A1, “CAGED GLUTAMATE UNLEASHED BY BLUE AND GREEN LIGHT: INNOVATIVE PHOTOSENSITIVE CONTROL” (Florida Institute of Technology, Inc., priority 2024, published 2025).

Tests used:
[1] = UV-Vis absorption of caged Glu compounds; type: physicochemical; details: for λMax: maximum absorbance wavelength; for ε(λMax): molar attenuation constant at λMax
Experimental: (§1) After purification, the organic solvent was removed by rotovap under vacuum and the remaining aqueous concentrate was subjected to a freeze-drying system (lyophilizer-Freezone 4.5 made by LABCONCO) to isolate the purified final product. The preparation of the caged compounds and their corresponding purifications were conducted under red light in the dark. Final products were covered with aluminum foil and stored at −20° C. until further needed. Each product was characterized by Proton Nuclear Magnetic Resonance (hereinafter “1H NMR”) and Carbon-13 Nuclear Magnetic Resonance (hereinafter “^13C NMR”) using Bruker 400 MHZ NMR spectrometer instrumentation. NMR solvents such as CDCl3 and (CD3)2CO were purchased from the Cambridge Isotope Laboratories. Chemical shifts were reported relative to the internal standard peak of tetramethylsilane (TMS). […] Referring to FIG. 10, irradiation rigs constructed of two round metal containers stacked with blue LED strips (467 nm) and green LED strips (520 nm) on their inner walls were used as photoreactors to irradiate the caged molecules in photochemical studies. The light flux was determined using liquid-phase potassium ferrioxalate actinomentry.
Referring to FIG. 6, a comprehensive assessment of 11 visible light-activated caged Glutamate (Glu) compounds was conducted using photophysical methods.

[2] = Photolysis (uncaging) kinetics under blue/green LED irradiation; quantum yield by UV and 1H NMR with ferrioxalate actinometry; type: physicochemical; details: for Φ (quantum yield / QE of uncaging): irradiation at 467 nm (TC) or 520 nm (BODIPY), LED flux 12.8 Wm-2, 23° C.; for εΦ (photo-cross-section): product of ε and Φ; for wavelength of visible light that activates / uncages the cage: single photon visible light
Experimental: as §1
The inventors studied the kinetics of uncaging of the two caged Glu designs (TC and BODIPY) and compared their efficiency of uncaging under identical conditions. They were irradiated with blue light at 467 nm and green light at 520 nm, respectively. Referring to FIG. 10, a temperature-controlled rig with purchased LED strips was set up.
The process for conducting the irradiation experiments comprised the following:
Sample Preparation: The caged molecules (containing the BODIPY photocage and Glutamate) were prepared in a solvent at a predetermined concentration. The solution was carefully prepared to ensure uniform dispersion of the molecules.
Irradiation Setup: The irradiation experiments were performed in a custom-built irradiation chamber equipped with the necessary safety measures (FIG. 10). The chamber was designed to prevent any unwanted exposure to the irradiation source and to maintain a controlled environment throughout the experiment.
Irradiation Source: The irradiation source used was from LED light Strips. This source was selected based on its wavelength range, intensity, and compatibility with the caged molecules' photochemistry. The source was positioned within the irradiation chamber to ensure an even and consistent illumination of the sample.
Sample Exposure: The sample solution was placed in a suitable container, ensuring that the solution thickness was uniform to minimize potential variations in the irradiation process. The container was positioned at a specific distance from the irradiation source, and the entire setup was shielded from external light sources to prevent interference.
Irradiation Protocol: The sample was irradiated for a predetermined duration, with the irradiation source emitting light at the desired wavelength range. The irradiation time was carefully controlled to maintain consistency across experiments.
Monitoring and Data Collection: Throughout the irradiation process, the changes in the sample's properties were monitored using spectroscopic techniques such as UV-Vis spectroscopy and NMR spectroscopy, depending on the specific properties being investigated. Data was collected at regular intervals to track the progress of the photochemical reaction.
Control Experiments: To validate the effects of irradiation, control experiments were conducted using identical conditions but without the presence of the caged molecules.
The quantification of the laser flux comprised the following:
A liquid-phase potassium ferrioxalate actinometer was prepared to measure the intensity of light in our irradiation rig, i.e., light flux, necessary for measurement of the quantum yields of various photochemical reactions.

[3] = prior art caged Glu; cited from earlier work

## CCC1=C(C)C2=C(COC(=O)CCC(N)C(=O)O)c3c(C)c(CC)c(C)n3[B-](F)(F)[N+]2=C1C (centres unmarked) [F-BODIPY-Et-Glu (10), 2-Amino-5-((2,8-diethyl-5,5-difluoro-1,3,7,9-tetramethyl-5H-414,514-dipyrrolo[1,2-c: 2′, 1′-f] [1,3,2]diazaborinin-10-yl)methoxy)-5-oxopentanoic acid]
[1]
  λMax: 542 nm
  ε(λMax): 57200 ± 280 M⁻¹ cm⁻¹
[2]
  Φ (quantum yield / QE of uncaging): 0.0077 ± 0.0004
  εΦ (photo-cross-section): 439.0 M⁻¹ cm⁻¹

## CC1=CC(C)=[N+]2C1=C(COC(=O)CCC(N)C(=O)O)c1c(C)cc(C)n1[B-]2(C)C (centres unmarked) [Me-BODIPY-H-Glu (6), 2-Amino-5-((1,3,5,5,7,9-hexamethyl-5H-414,514-dipyrrolo[1,2-c: 2′, 1′-f] [1,3,2]diazaborinin-10-yl)methoxy)-5-oxopentanoic acid]
[1]
  λMax: 511 nm
  ε(λMax): 43600 ± 200 M⁻¹ cm⁻¹
[2]
  Φ (quantum yield / QE of uncaging): 0.074 ± 0.002
  εΦ (photo-cross-section): 3230.0 M⁻¹ cm⁻¹

## 7-Diethylamino-4-carboxylmethyl-thiocoumarin glutamate [TC-N-Glu (1)]
[1]
  λMax: 461 nm
  ε(λMax): 21800 ± 100 M⁻¹ cm⁻¹
[2]
  Φ (quantum yield / QE of uncaging): 0.0017 ± 0.0002
  εΦ (photo-cross-section): 38.2 M⁻¹ cm⁻¹
  wavelength of visible light that activates / uncages the cage: 445 nm

## CCC1=C(C)C2=C(COC(=O)CCC(N)C(=O)O)c3c(C)c(CC)c(C)n3[B-](C)(C)[N+]2=C1C (centres unmarked) [Me-BODIPY-Et-Glu (7), 2-Amino-5-((2,8-diethyl-1,3,5,5,7,9-hexamethyl-5H-414,514-dipyrrolo[1,2-c: 2′, 1′-f] [1,3,2]diazaborinin-10-yl)methoxy)-5-oxopentanoic acid]
[1]
  λMax: 532 nm
  ε(λMax): 35700 ± 180 M⁻¹ cm⁻¹
[2]
  Φ (quantum yield / QE of uncaging): 0.029 ± 0.001
  εΦ (photo-cross-section): 1040.0 M⁻¹ cm⁻¹

## N[C@@H](CCC(=O)N1CCc2c(OCC(=O)O)c([N+](=O)[O-])cc([N+](=O)[O-])c21)C(=O)O [CDNI-Glu]
[3]
  absorption maximum: 350 nm
  quantum yield (Φ): 0.5

## CC1=CC(C)=[N+]2C1=C(COC(=O)CCC(N)C(=O)O)c1c(C)cc(C)n1[B-]2(F)F (centres unmarked) [F-BODIPY-H-Glu (9), 2-Amino-5-((5,5-difluoro-1,3,7,9-tetramethyl-5H-414,514-dipyrrolo[1,2-c: 2′, 1′-f] [1,3,2]diazaborinin-10-yl)methoxy)-5-oxopentanoic acid]
[1]
  λMax: 517 nm
  ε(λMax): 84600 ± 500 M⁻¹ cm⁻¹
[2]
  Φ (quantum yield / QE of uncaging): 0.0001 ± 0.00002
  εΦ (photo-cross-section): 4.7 M⁻¹ cm⁻¹

## CCC1=C(C)C2=C(COC(=O)NC(CCC(=O)O)C(=O)O)c3c(C)c(CC)c(C)n3[B-](F)(F)[N+]2=C1C (centres unmarked) [F-BODIPY-Et-N-Glu (5), (((2,8-Diethyl-5,5-difluoro-1,3,7,9-tetramethyl-5H-414,514-dipyrrolo[1,2-c: 2′, 1′-f] [1,3,2]diazaborinin-10-yl)methoxy)carbonyl) glutamic acid]
[1]
  λMax: 542 nm
  ε(λMax): 78300 ± 400 M⁻¹ cm⁻¹
[2]
  Φ (quantum yield / QE of uncaging): 0.0001 ± 0.00001
  εΦ (photo-cross-section): 10.9 M⁻¹ cm⁻¹

## CC1=C(Br)C(C)=[N+]2C1=C(COC(=O)NC(CCC(=O)O)C(=O)O)c1c(C)c(Br)c(C)n1[B-]2(C)C (centres unmarked) [Me-BODIPY-Br-N-Glu (3), (((2,8-Dibromo-1,3,5,5,7,9-hexamethyl-5H-414,514-dipyrrolo[1,2-c: 2′, 1′-f] [1,3,2]diazaborinin-10-yl)methoxy)carbonyl) glutamic acid]
[1]
  λMax: 532 nm
  ε(λMax): 8213 ± 50 M⁻¹ cm⁻¹
[2]
  Φ (quantum yield / QE of uncaging): 0.12 ± 0.04
  εΦ (photo-cross-section): 985.6 M⁻¹ cm⁻¹

## CCC1=C(C)C2=C(COC(=O)NC(CCC(=O)O)C(=O)O)c3c(C)c(CC)c(C)n3[B-](C)(C)[N+]2=C1C (centres unmarked) [Me-BODIPY-Et-N-Glu (2), (((2,8-Diethyl-1,3,5,5,7,9-hexamethyl-5H-414,514-dipyrrolo[1,2-c: 2′, 1′-f] [1,3,2]diazaborinin-10-yl)methoxy)carbonyl) glutamic acid]
[1]
  λMax: 532 nm
  ε(λMax): 24000 ± 120 M⁻¹ cm⁻¹
[2]
  Φ (quantum yield / QE of uncaging): 0.095 ± 0.003
  εΦ (photo-cross-section): 2270.0 M⁻¹ cm⁻¹

## CC1=C(I)C(C)=[N+]2C1=C(COC(=O)NC(CCC(=O)O)C(=O)O)c1c(C)c(I)c(C)n1[B-]2(C)C (centres unmarked) [Me-BODIPY-I-N-Glu (4), (((2,8-Diiodo-1,3,5,5,7,9-hexamethyl-5H-414,514-dipyrrolo[1,2-c: 2′, 1′-f] [1,3,2]diazaborinin-10-yl)methoxy)carbonyl) glutamic acid]
[1]
  λMax: 536 nm
  ε(λMax): 10030 ± 70 M⁻¹ cm⁻¹
[2]
  Φ (quantum yield / QE of uncaging): 0.15 ± 0.01
  εΦ (photo-cross-section): 1504.6 M⁻¹ cm⁻¹

## CC1=C(Br)C(C)=[N+]2C1=C(COC(=O)CCC(N)C(=O)O)c1c(C)c(Br)c(C)n1[B-]2(C)C (centres unmarked) [Me-BODIPY-Br-Glu (8), 2-Amino-5-((2,8-dibromo-1,3,5,5,7,9-hexamethyl-5H-414,514-dipyrrolo[1,2-c: 2′, 1′-f] [1,3,2]diazaborinin-10-yl)methoxy)-5-oxopentanoic acid]
[1]
  λMax: 531 nm
  ε(λMax): 54200 ± 240 M⁻¹ cm⁻¹
[2]
  Φ (quantum yield / QE of uncaging): 0.65 ± 0.01
  εΦ (photo-cross-section): 35230.0 M⁻¹ cm⁻¹
  wavelength of visible light that activates / uncages the cage: 540 nm
[2]; 8
  Φ (quantum yield / QE of uncaging): 0.65
[2]; listed as Me-BODIPY-Br-Glu
  Φ (quantum yield / QE of uncaging): 0.65

## CC1=C(Br)C(C)=[N+]2C1=C(COC(=O)CCC(N)C(=O)O)c1c(C)c(Br)c(C)n1[B-]2(F)F (centres unmarked) [F-BODIPY-Br-Glu (11), 2-Amino-5-((2,8-dibromo-5,5-difluoro-1,3,7,9-tetramethyl-5H-414,514-dipyrrolo[1,2-c: 2′, 1′-f] [1,3,2]diazaborinin-10-yl)methoxy)-5-oxopentanoic acid]
[1]
  λMax: 544 nm
  ε(λMax): 10300 ± 80 M⁻¹ cm⁻¹
[2]
  Φ (quantum yield / QE of uncaging): 0.0004 ± 0.00001
  εΦ (photo-cross-section): 4.2 M⁻¹ cm⁻¹
